Data on eight molecules can be found in ChEMBL document CHEMBL3102762, “A "natural" approach: synthesis and cytoxicity of monodesmosidic glycyrrhetinic acid glycosides” (Eur J Med Chem, 2014).

Broadly, the IC50 is the concentration at which inhibition is half-maximal.

A short description of test [1]: Cytotoxicity against human 518A2 cells by SRB assay. It is filed as functional, cell-based. Background: In SRB staining, fixed cells bind dye roughly in proportion to their protein.
For test [2], the system named is MCF7. Description: Cytotoxicity against human MCF7 cells by SRB assay. It is filed as functional, cell-based.
Test [3] can be described thus: Cytotoxicity against human SW1736 cells by SRB assay. The class given is functional, cell-based. As to conditions: SW-1736.
The next test deals with NIH3T3. The test is described as follows: Cytotoxicity against mouse NIH/3T3 cells by SRB assay. The class given is cell-based.
In another test the test system is A549. Description: Induction of apoptosis in human A549 cells by acridine orange/ethidium bromide staining. It is filed as functional, cell-based.
A short description of test [4]: Cytotoxicity against human Lipo cells by SRB assay. It is filed as functional, cell-based.
In test [5] the test system is MCF7. Description: Induction of apoptosis in human MCF7 cells at 40 uM by acridine orange/ethidium bromide staining. It is filed as functional, cell-based.
The nature of test [6]: Cytotoxicity against human DLD1 cells by SRB assay. It is filed as functional, cell-based. The settings on record: DLD-1.
The subject of another test is 8505C. The test is described as follows: Cytotoxicity against human 8505C cells by SRB assay. It is filed as functional, cell-based.
Test [7] in a line: Cytotoxicity against human A253 cells by SRB assay. It is filed as functional, cell-based.
For test [8], the system named is MCF7. The test is described as follows: Induction of apoptosis in human MCF7 cells at 30 uM by acridine orange/ethidium bromide staining. It is filed as functional, cell-based.
In test [9] the test system is MCF7. Description: Induction of apoptosis in human MCF7 cells at 20 uM by acridine orange/ethidium bromide staining. The class given is functional, cell-based.
Test [10] relates to MCF7. The test is described as follows: Induction of apoptosis in human MCF7 cells at 12 uM by acridine orange/ethidium bromide staining. It is filed as functional, cell-based.

Active and inactive are the calls of the source. The calls are words filed in the database; no cut-off is given here.

For `COC(=O)[C@@]1(C)CC[C@]2(C)CC[C@]3(C)C(=CC(=O)[C@@H]4[C@@]5(C)CC[C@H](O[C@H]6OC[C@@H](O)[C@@H](O)[C@@H]6O)C(C)(C)[C@@H]5CC[C@]43C)[C@@H]2C1`, the IC50 (in [1]; with MCF7 [2]; in test [3]; in the test on NIH3T3; in test [4]; in test [6]) was over 30 µM each time. Further, the IC50 (in the test on 8505C; in [7]) was over 30 µM each time. The outcome in the test on A549 and in the test on MCF7 [5] was Active.

With `COC(=O)[C@@]1(C)CC[C@]2(C)CC[C@]3(C)C(=CC(=O)[C@@H]4[C@@]5(C)CC[C@H](O[C@@H]6OC[C@@H](O)[C@H](O)[C@H]6O)C(C)(C)[C@@H]5CC[C@]43C)[C@@H]2C1`, the IC50 (in test [1]; in the test on MCF7 [2]; in test [3]; in the test with NIH3T3; in [4]; in test [6]) was over 30 µM in each case. For the same molecule, the IC50 (with 8505C; in test [7]) was over 30 µM each time. In addition, the outcome in the test on A549 and in the test on MCF7 [5] was Active.

Take `COC(=O)[C@@]1(C)CC[C@]2(C)CC[C@]3(C)C(=CC(=O)[C@@H]4[C@@]5(C)CC[C@H](O)C(C)(C)[C@@H]5CC[C@]43C)[C@@H]2C1`: the outcome in the test on A549 and in the test on MCF7 [8] was Active.

Take `COC(=O)[C@@]1(C)CC[C@]2(C)CC[C@]3(C)C(=CC(=O)[C@@H]4[C@@]5(C)CC[C@H](O[C@@H]6O[C@H](CO)[C@H](O)[C@H](O)[C@H]6O)C(C)(C)[C@@H]5CC[C@]43C)[C@@H]2C1`: the IC50 in test [1] worked out at 23.3 µM; in the test on MCF7 [2] it was 20.1 µM; in test [3], 21.4 µM; in the test on NIH3T3 it was 23.4 µM; in [4] it was 23.2 µM; in test [6] it was 23.2 µM. In addition, the IC50 in the test with 8505C was 22.8 µM; in test [7], 19.7 µM. For the same molecule, the outcome in the test on A549 and with MCF7 [8] was Active.

`COC(=O)[C@@]1(C)CC[C@]2(C)CC[C@]3(C)C(=CC(=O)[C@@H]4[C@@]5(C)CC[C@H](O[C@@H]6OC[C@H](O)[C@H](O)[C@H]6O)C(C)(C)[C@@H]5CC[C@]43C)[C@@H]2C1`: the 50% inhibitory concentration (IC50) in [1] is over 30 µM; in the test with MCF7 [2], 16.7 µM; in [3] it was over 30 µM; in the test with NIH3T3 it was over 30 µM; in test [4], over 30 µM; in test [6] it was over 30 µM. In addition, the IC50 (with 8505C; in [7]) was over 30 µM each time. For the same molecule, the result in the test on A549 and in the test on MCF7 [9] was Active.

Regarding `COC(=O)[C@@]1(C)CC[C@]2(C)CC[C@]3(C)C(=CC(=O)[C@@H]4[C@@]5(C)CC[C@H](O[C@H]6O[C@H](CO)[C@@H](O)[C@H](O)[C@@H]6O)C(C)(C)[C@@H]5CC[C@]43C)[C@@H]2C1`, the IC50 in test [1] is 25.9 µM; in the test on MCF7 [2], 9.48 µM; in [3], 11.2 µM; with NIH3T3, over 30 µM; in [4], over 30 µM; in test [6], over 30 µM. Moreover, the IC50 came out at 22 µM in the test on 8505C and 13.2 µM in test [7]. The outcome with A549 and with MCF7 [10] was Active.

With `COC(=O)[C@@]1(C)CC[C@]2(C)CC[C@]3(C)C(=CC(=O)[C@@H]4[C@@]5(C)CC[C@H](O[C@H]6O[C@@H](C)[C@H](O)[C@@H](O)[C@H]6O)C(C)(C)[C@@H]5CC[C@]43C)[C@@H]2C1`, the IC50 in test [1] is 28.9 µM; in the test with MCF7 [2] it was over 30 µM; in test [3], 23.9 µM; in the test on NIH3T3 it was over 30 µM; in [4], 28.4 µM; in test [6], over 30 µM. The IC50 is over 30 µM in the test on 8505C and 27.2 µM in test [7]. The outcome in the test with A549 and in the test on MCF7 [5] was Active.

For the molecule `COC(=O)[C@@]1(C)CC[C@]2(C)CC[C@]3(C)C(=CC(=O)[C@@H]4[C@@]5(C)CC[C@H](O[C@@H]6O[C@@H](C)[C@H](O)[C@@H](O)[C@H]6O)C(C)(C)[C@@H]5CC[C@]43C)[C@@H]2C1`, the IC50 in test [1] was over 30 µM; in the test on MCF7 [2], 19.6 µM; in test [3], over 30 µM; in the test with NIH3T3, over 30 µM; in [4], over 30 µM; in test [6], over 30 µM. In addition, the IC50 (in the test on 8505C; in test [7]) was over 30 µM each time. For the same molecule, the outcome in the test on A549 and in the test with MCF7 [8] was Active.
